Data set [1] deals with Sodium-dependent serotonin transporter (Rattus norvegicus) (UniProt P31652). The data set is described as follows: Displacement of [3H]5-HT from of SERT in rat midbrain homogenates at 10 uM after 5 mins by scintillation counting. The format is tissue-based. (In general: In a radioligand displacement assay an active substance lowers the binding of a labelled ligand.)
The target is the same in data set [2]. Briefly: Displacement of [3H]5-HT from of SERT in rat midbrain homogenates at 1 uM after 5 mins by scintillation counting. The data set is classed as tissue-based.
Data set [3] addresses T1, 5-hydroxytryptamine receptor 7 (Homo sapiens, UniProt P34969). The data set is described as follows: Displacement of [3H]5-CT from human 5HT7 receptor expressed in HEK293 cells after 1 hr by liquid scintillation counting. The data set is classed as cell-based.
For data set [4], the target named is T1, 5-hydroxytryptamine receptor 7. The data set is described as follows: Inverse agonist activity at human 5HT7 receptor expressed in HEK293 cells assessed as effect on cAMP production after 20 mins. The data set is classed as functional, cell-based. On the technique in general: Cyclic AMP is a second messenger, typically raised through Gs and lowered through Gi signalling.

The target is the same in data set [5]. The data set is described as follows: Antagonist activity at human 5HT7 receptor expressed in HEK293 cells assessed as inhibition of serotonin-induced cAMP production after 20 mins. The data set is classed as functional, cell-based.
Data set [6] shares this target. The data set is described as follows: Partial agonist activity at human 5HT7 receptor expressed in HEK293 cells assessed as effect on cAMP production after 20 mins. The format is functional, cell-based.
Data set [7] concerns Mus musculus. The data set is described as follows: Toxicity in albino mouse assessed as increase in locomotor activity at 10 mg/kg, ip. The data set is classed as organism-based. On the set-up: dose 10 mg/kg, route intraperitoneal. As to conditions: in vivo.
Data set [8] concerns the target T2, 5-hydroxytryptamine receptor 1A (Homo sapiens, UniProt P08908).
T2 sequence (P08908 whole entry): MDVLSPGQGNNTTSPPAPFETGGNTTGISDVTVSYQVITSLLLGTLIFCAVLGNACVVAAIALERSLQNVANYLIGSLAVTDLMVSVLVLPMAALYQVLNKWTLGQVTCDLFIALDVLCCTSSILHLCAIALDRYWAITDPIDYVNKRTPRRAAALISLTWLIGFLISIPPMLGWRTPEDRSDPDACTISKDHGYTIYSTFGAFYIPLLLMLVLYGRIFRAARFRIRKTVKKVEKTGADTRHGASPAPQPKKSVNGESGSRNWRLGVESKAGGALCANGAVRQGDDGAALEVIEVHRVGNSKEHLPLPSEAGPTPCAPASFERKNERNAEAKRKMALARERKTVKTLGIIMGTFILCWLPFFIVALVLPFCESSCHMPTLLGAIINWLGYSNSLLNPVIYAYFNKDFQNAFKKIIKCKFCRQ
Briefly: Binding affinity to 5HT1A receptor.

Data set [9] deals with Mus musculus. Briefly: Antidepressant activity in albino mouse assessed as reduction of immobility time at 10 mg/kg, ip qd for 15 days by forced swimming test. The data set is classed as functional, organism-based. Set-up: dose 10 mg/kg.
The target of data set [10] is Sodium-dependent serotonin transporter (Rattus norvegicus, UniProt P31652). The data set is described as follows: Displacement of [3H]5-HT from of SERT in rat midbrain homogenates after 5 mins by scintillation counting. The data set is classed as tissue-based.
Chain of Sodium-dependent serotonin transporter (P31652 whole entry): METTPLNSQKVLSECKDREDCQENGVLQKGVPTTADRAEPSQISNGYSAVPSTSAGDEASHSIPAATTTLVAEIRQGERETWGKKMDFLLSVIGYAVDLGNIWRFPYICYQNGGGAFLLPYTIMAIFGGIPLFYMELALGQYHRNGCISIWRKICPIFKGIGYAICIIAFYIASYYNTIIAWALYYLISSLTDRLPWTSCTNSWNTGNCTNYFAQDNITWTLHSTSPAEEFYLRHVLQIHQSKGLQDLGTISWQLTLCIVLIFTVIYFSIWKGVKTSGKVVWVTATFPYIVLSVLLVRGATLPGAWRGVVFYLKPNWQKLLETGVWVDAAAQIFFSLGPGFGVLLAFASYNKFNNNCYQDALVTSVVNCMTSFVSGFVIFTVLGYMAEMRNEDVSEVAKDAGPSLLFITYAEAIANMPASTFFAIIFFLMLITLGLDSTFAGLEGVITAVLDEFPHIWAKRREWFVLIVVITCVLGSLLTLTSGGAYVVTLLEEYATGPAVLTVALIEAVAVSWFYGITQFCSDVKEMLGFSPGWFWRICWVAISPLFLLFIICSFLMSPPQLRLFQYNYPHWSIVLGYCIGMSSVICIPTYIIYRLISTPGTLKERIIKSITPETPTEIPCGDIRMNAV
Data set [11] has as its system Mus musculus. Briefly: Antidepressant activity in albino mouse assessed as reduction of immobility time at 10 mg/kg, ip measured for 4 mins by forced swimming test. The format is functional, organism-based. Set-up: dose 10 mg/kg.
The test system of data set [12] is Mus musculus. The data set is described as follows: Antidepressant activity in albino mouse assessed as reduction of immobility time at 20 mg/kg, ip qd for 15 days by forced swimming test. The format is functional, organism-based. On the set-up: dose 20 mg/kg.
The test system of data set [13] is Mus musculus. Briefly: Antidepressant activity in albino mouse assessed as reduction of immobility time at 10 to 20 mg/kg, ip measured up to 4 mins by forced swimming test. The format is functional, organism-based.
For data set [14], the target named is T1, 5-hydroxytryptamine receptor 7. Briefly: Partial antagonist activity at human 5HT7 receptor expressed in HEK293 cells assessed as inhibition of serotonin-induced cAMP production after 20 mins. The data set is classed as functional, cell-based.

Active and inactive are the calls of the source. The calls are words filed in the database; no cut-off is given here.

23 compounds from ChEMBL document CHEMBL1781929, “Novel benzo[b]thiophene derivatives as new potential antidepressants with rapid onset of action” (J Med Chem, 2011) can be followed below.

As a reminder, the inhibition is the change of the read-out against control, counted positive when it falls. A higher inhibition goes with a response far below the control. The term Ki denotes a measure of affinity in units of concentration, obtained from inhibition or displacement. High values mean lower affinity, low ones higher affinity. As a reminder, the IC50 is the concentration at which inhibition is half-maximal. A lower IC50 goes with higher potency.

Chain of Sodium-dependent serotonin transporter (Rattus norvegicus) (P31652 whole entry): as above
T1 sequence (P34969 whole entry): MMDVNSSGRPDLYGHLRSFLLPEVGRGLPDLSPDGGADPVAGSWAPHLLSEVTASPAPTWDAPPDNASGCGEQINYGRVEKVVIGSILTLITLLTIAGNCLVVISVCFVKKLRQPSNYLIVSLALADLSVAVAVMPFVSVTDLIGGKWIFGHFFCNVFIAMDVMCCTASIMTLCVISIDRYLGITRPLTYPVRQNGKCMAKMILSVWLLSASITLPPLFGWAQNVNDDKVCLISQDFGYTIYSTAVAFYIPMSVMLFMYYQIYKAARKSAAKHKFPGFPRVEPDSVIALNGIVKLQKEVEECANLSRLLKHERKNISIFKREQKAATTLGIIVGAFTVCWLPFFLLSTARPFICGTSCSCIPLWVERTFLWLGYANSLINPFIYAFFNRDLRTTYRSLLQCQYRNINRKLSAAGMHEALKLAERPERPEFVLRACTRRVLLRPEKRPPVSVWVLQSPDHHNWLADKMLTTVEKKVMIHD

In the case of `OC(CCN1CCC(N2CCOCC2)CC1)c1csc2ccccc12` (stereo unspecified), the inhibition in data set [1] is 63.6%; in data set [2] it was 2.2%. The same compound had a Ki in data set [3] of 27.5 µM.
The corresponding values for `N#Cc1ccc(N2CCCN(CCC(=O)c3csc4ccccc34)CC2)cc1` are 63.1%, 1.2% and 15.1 µM.
As to `O=[N+]([O-])c1ccc(N2CCC(NCCC(O)c3csc4ccccc34)C2)cc1` (single isomer, unassigned), the values for the inhibition in data set [1] and in data set [2] were 49.2% and 28.1%, respectively. The compound also had an inhibition constant (Ki) in data set [3] greater than 100 µM.
On to `N#Cc1ccc(N2CCN(CCC(O)c3csc4ccccc34)CC2)cc1` (stereo unspecified), for which the inhibition in data set [1] was 57.7%; in data set [2], 43.5%. In [3], the Ki was 12.6 µM. Further, the outcome in data set [4] and in data set [5] was Active.
On to `Nc1ccc(N2CCN(CCC(=O)c3csc4ccccc34)CC2)cc1`, for which, in data set [3], affinity was put at a Ki of 14.1 µM. In other words, the double-digit micromolar range.
Regarding `O=[N+]([O-])c1ccc(N2CCCN(CCC(O)c3csc4ccccc34)CC2)c(C(F)(F)F)c1` (stereo unspecified), the result in data set [6] was Active. Besides, the inhibition in data set [1] was 36%; in data set [2], 0%. The same compound had a Ki in [3] of 8.71 µM.
Turning to `O=C(CCN[C@H]1CCN(c2ccc([N+](=O)[O-])cc2C(F)(F)F)C1)c1csc2ccccc12`, the Activity entry in [7] is listed as “Non-toxic”. Also, the inhibition in data set [1] was found to be 97.9%; in data set [2] it was 28.4%. Besides, the Ki in [3] was greater than 100 µM; in data set [8], 0.0501 µM. For the same compound, the result in [9] was Active. The 50% inhibitory concentration (IC50) in data set [10] turned out to be 7.02 µM.
For the compound `N#Cc1ccc(N2CC[C@H](NCCC(=O)c3csc4ccccc34)C2)cc1`, the inhibition in data set [1] was determined as 45.6%; in data set [2], 0%. In addition, the Ki in data set [3] was greater than 100 µM.
In the case of `O=C(CCN1CCC(N2CCOCC2)CC1)c1csc2ccccc12`, the inhibition in data set [1] turned out to be 30.2%; in data set [2], 11.1%. The same compound gave a Ki in data set [3] of 53.7 µM.
The corresponding values for `O=C(CCN1CCN(c2ccc([N+](=O)[O-])cc2)CC1)c1csc2ccc(F)cc12` are 16.3%, 0% and 91.2 µM.
`O=C(CCN[C@@H]1CCN(c2ccc([N+](=O)[O-])cc2)C1)c1csc2ccccc12`: the inhibition is 45.4% in [1] and 9% in [2]. In [3], the inhibitory constant (Ki) is greater than 100 µM.
In the same order, the values of `O=C(CCN1CCCN(c2cnc3ccccc3n2)CC1)c1csc2ccccc12` are 58%, 23.8% and 9.55 µM.
Consider `O=C(CCN1CCN(c2ccc([N+](=O)[O-])cc2)CC1)c1csc2ccccc12`, for which the inhibition was determined as 33.2% in data set [1] and 2.1% in [2]. For the same compound, in [3], the Ki is greater than 100 µM.
In data set [3], `O=C(CCN1CCCN(c2ccc([N+](=O)[O-])cc2C(F)(F)F)CC1)c1csc2ccccc12` gave a Ki greater than 100 µM.
In the case of `O=C(CCNC1CCN(c2ccc([N+](=O)[O-])cc2C(F)(F)F)CC1)c1csc2ccccc12`, the result in data set [6] and in [5] was Active. The inhibition in [1] was found to be 62.8%; in data set [2], 26.9%. In addition, in [3], the Ki is 9.12 µM.
For `N#Cc1ccc(N2CCC(NCCC(=O)c3csc4ccccc34)CC2)cc1`, the outcome in data set [6] was Active. In data set [3], this compound gave a Ki of 7.24 µM.
Take `N#Cc1ccc(N2CCCN(CCC(O)c3csc4ccccc34)CC2)cc1` (stereo unspecified): the outcome in data set [11], in [9], in [4] and in data set [5] was Active. Also, in data set [7], the Activity result is “Non-toxic”. Besides, the inhibition came out at 36.7% in [1] and 19.7% in data set [2]. Moreover, the Ki in [3] is 0.263 µM; in [8], 3.16 µM. Besides, the IC50 in data set [10] was 57.8 µM.
Turning to `O=C(CCN[C@H]1CCN(c2ccc([N+](=O)[O-])cc2)C1)c1csc2ccccc12`, the inhibition was determined as 36.6% in data set [1] and 0% in [2]. The compound also showed a Ki in data set [3] greater than 100 µM.
As for `N#Cc1ccc(N2CCC(NCCC(O)c3csc4ccccc34)CC2)cc1` (stereo unspecified), in data set [7], the Activity entry was “Non-toxic”. The inhibition in data set [1] is 80.4%; in data set [2] it was 53.1%. In addition, the Ki was 1.66 µM in data set [3] and 0.158 µM in data set [8]. The result in data set [9] and in [4] was Active. Moreover, in data set [10], the IC50 was found to be 3.66 µM.
On to `O=C(CCN1CC[C@@H](Nc2ccc([N+](=O)[O-])cc2)C1)c1csc2ccccc12`, for which the inhibition in [1] was determined as 76.5%; in data set [2] it was 17.9%. In data set [3], this compound had a Ki greater than 100 µM.
Turning to `CNCCC(Oc1ccc(C(F)(F)F)cc1)c1ccccc1` (stereo unspecified), the result in data set [12] was Active. For the same compound, the outcome in data set [13] was inactive.
As to `N#Cc1ccc(N2CCN(CCC(=O)c3csc4ccccc34)CC2)cc1`, the inhibition in data set [1] came out at 38.2%; in data set [2] it was 5.4%. This compound gave an inhibition constant Ki in data set [3] greater than 100 µM.
With `O=C(CCNC1CCN(c2ccc([N+](=O)[O-])cc2)CC1)c1csc2ccc(F)cc12`, the inhibition in data set [1] stood at 35%; in [2] it was 3.1%. Besides, the outcome in data set [14] and in data set [5] was Active. This compound had a Ki in data set [3] of 4.79 µM.
